The record followed here is ChEMBL document CHEMBL5370606, “Diterpenoids from Euphorbia fischeriana with Kv1.3 Inhibitory Activity” (J Nat Prod, 2023).

Data set [1] addresses T1, Potassium voltage-gated channel subfamily A member 3 (Homo sapiens, UniProt P22001). The experiment in a line: Inhibition of Kv1.3 (unknown origin) expressed in HEK293 cells at 10 uM at -90 mV holding potential by automated patch-clamp technique relative to control. Type of data set: cell-based.
Data set [2] deals with T1, Potassium voltage-gated channel subfamily A member 3. The experiment in a line: Inhibition of Kv1.3 (unknown origin) expressed in HEK293 cells at 30 uM at -90 mV holding potential by automated patch-clamp technique relative to control. In kind it is cell-based.
The next data set relates to HEK293. The experiment in a line: Cytotoxicity against HEK293 cells. To be noted: human. In kind it is toxicity, cell-based.
In data set [3] the target is T2, hERG (KCNH2) (Homo sapiens, UniProt Q12809). The data set is described as follows: Inhibition of human ERG expressed in HEK293 cells at 30 uM at -80 mV holding potential by whole-cell patch clamp method. In kind it is toxicity, cell-based. To be noted: HEK293 cells that express hERG.
The target in data set [4] is T2, hERG (KCNH2). The experiment in a line: Inhibition of human ERG expressed in HEK293 cells at 10 uM at -80 mV holding potential by whole-cell patch clamp method. In kind it is toxicity, cell-based. To be noted: HEK293 cells that express hERG.
The target of data set [5] is Voltage-gated inwardly rectifying potassium channel KCNH2 (Homo sapiens, UniProt Q12809). The experiment in a line: Inhibition of human ERG expressed in HEK293 cells at -80 mV holding potential by whole-cell patch clamp method. In kind it is toxicity, cell-based.
Data set [6] addresses T1, Potassium voltage-gated channel subfamily A member 3. The experiment in a line: Inhibition of Kv1.3 (unknown origin) expressed in HEK293 cells at -90 mV holding potential by automated patch-clamp technique. In kind it is cell-based.
The species named for another data set is Homo sapiens. The experiment in a line: Selectivity index, ratio of IC50 for human ERG expressed in HEK293 cells to IC50 for Kv1.3 (unknown origin) expressed in HEK293 cells. Type of data set: cell-based.

Bounds are passed on as bounds.

T1 sequence (P22001 whole entry): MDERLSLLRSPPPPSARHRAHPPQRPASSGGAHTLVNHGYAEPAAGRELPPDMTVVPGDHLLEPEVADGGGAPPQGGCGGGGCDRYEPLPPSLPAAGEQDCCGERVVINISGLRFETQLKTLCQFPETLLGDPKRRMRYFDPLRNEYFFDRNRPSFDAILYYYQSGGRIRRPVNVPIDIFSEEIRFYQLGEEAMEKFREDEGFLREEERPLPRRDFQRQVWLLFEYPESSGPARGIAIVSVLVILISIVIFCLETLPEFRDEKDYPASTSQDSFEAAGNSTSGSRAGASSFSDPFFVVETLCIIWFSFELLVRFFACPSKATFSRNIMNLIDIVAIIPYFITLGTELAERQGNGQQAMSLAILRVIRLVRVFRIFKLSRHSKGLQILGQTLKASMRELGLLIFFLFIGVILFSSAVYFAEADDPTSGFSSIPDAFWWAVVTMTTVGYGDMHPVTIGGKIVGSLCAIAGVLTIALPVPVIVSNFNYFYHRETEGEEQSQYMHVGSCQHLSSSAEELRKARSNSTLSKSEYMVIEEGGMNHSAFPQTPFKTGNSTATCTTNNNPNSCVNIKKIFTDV
T2 sequence (Q12809 whole entry): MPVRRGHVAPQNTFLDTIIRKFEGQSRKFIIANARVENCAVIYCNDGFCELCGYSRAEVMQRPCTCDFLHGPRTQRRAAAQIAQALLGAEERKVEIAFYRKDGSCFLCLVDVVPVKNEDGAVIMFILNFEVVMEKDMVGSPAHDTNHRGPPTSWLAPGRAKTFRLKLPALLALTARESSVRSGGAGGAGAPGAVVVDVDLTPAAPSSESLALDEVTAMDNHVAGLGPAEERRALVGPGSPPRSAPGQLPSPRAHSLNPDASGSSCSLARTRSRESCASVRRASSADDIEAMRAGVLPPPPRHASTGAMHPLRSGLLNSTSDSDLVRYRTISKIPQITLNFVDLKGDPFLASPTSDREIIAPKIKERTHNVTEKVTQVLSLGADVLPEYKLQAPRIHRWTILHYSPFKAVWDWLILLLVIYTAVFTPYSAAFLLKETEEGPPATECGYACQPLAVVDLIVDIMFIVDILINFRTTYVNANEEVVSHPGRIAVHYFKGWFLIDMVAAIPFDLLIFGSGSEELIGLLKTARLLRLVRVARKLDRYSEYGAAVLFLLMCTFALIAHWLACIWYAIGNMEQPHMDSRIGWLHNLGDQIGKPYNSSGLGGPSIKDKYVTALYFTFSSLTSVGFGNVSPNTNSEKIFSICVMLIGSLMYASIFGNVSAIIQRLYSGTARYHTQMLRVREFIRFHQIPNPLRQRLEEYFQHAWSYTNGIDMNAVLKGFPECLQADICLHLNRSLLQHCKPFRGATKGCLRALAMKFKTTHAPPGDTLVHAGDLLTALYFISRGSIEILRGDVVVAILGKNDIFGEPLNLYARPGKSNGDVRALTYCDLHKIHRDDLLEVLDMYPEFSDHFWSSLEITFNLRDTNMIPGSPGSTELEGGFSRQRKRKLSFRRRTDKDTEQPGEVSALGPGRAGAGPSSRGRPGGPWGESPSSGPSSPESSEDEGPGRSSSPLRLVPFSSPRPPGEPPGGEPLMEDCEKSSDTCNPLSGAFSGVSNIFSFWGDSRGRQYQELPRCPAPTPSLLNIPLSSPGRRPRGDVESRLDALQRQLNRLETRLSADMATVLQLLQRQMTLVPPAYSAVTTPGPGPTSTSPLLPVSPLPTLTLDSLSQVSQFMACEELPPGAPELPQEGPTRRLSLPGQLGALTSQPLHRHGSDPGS
Chain of Voltage-gated inwardly rectifying potassium channel KCNH2 (Q12809 whole entry): as above

As to `CC(=O)O[C@@H]1[C@@H](C)/C=C/C(C)(C)C(=O)C[C@@H](OC(C)=O)/C(C)=C/[C@H]2[C@@H](OC(=O)c3ccccc3)[C@H](C)C[C@]12O`, the inhibition was found to be 30.2% in data set [1] and 72% in data set [2]. Besides, the Activity result with HEK293 is “Non-Toxic”.
As to `CC(=O)O[C@@H]1CC(=O)C(C)(C)/C=C/[C@@H](C)[C@@H](O)[C@@]2(OC(C)=O)C[C@@H](C)[C@H](OC(=O)c3ccccc3)[C@@H]2/C=C/1C`, the values for the inhibition in data set [1] and in data set [2] were 62.2% and 86.5%, respectively. Also, testing at 30 µM on hERG (KCNH2) [3] gave an inhibition of 60.2%. The Activity entry in the data set on HEK293 was “Non-Toxic”. The compound further yielded an inhibition at 10 µM against hERG (KCNH2) [4] of 36.9%.
Regarding `CC1=C2C=C3CC[C@@H]4C(C)(C)[C@H](O)C(=O)C[C@@]4(C)[C@@H]3C[C@H]2OC1=O`, the inhibition in data set [2] was found to be 20.4%. The Activity entry with HEK293 is reported as “Non-Toxic”.
Consider `COC(=O)CCC(=O)O[C@@H]1C[C@H]2[C@@H](/C=C(\C)C(=O)[C@@]3(OC(C)=O)C[C@@H](C)[C@H](O)[C@@H]3/C=C/1C)C2(C)C`, for which the inhibition in data set [1] came to 47.6%; in data set [2], 89.4%. Moreover, the inhibition at 30 µM against hERG (KCNH2) [3] stood at 49.7%. In addition, the Activity entry in the data set on HEK293 is “Non-Toxic”. In addition, on hERG (KCNH2) [4], the inhibition at 10 µM came out at 29.7%.
Take `CC1=C2C=C3CC[C@@H]4C(C)(C)C(=O)CC[C@@]4(C)[C@]3(O)C[C@H]2OC1=O`: the inhibition in data set [2] was determined as 17.2%. Moreover, in the data set with HEK293, the Activity result is “Non-Toxic”.
On the same counts, the results for `C=C1C[C@@]23CC[C@@H]4C(C)(C)[C@H](O)CC[C@@]4(C)[C@@H]2C[C@@H]1[C@@H](O)C3=O` are 10.4% and “Non-Toxic”.
As for `CC1(C)[C@H](O)CC[C@]2(C)[C@@H]1CC[C@@]13CC[C@@H](C[C@H]12)[C@](O)(CO)C3`, the inhibition in data set [2] came to 21%. For the same compound, the Activity result in the data set with HEK293 is on record as “Non-Toxic”.
In the same order, the values of `CC1=C2C(=C[C@H]3[C@]4(C)CC[C@@H](O)C(C)(C)[C@H]4CC[C@]34O[C@H]24)OC1=O` are 14.5% and “Non-Toxic”.
Turning to `CCC/C=C\C=C\C(=O)O[C@@H]1C[C@H]2[C@@H](/C=C(\C)C(=O)[C@@]3(OC(C)=O)C[C@@H](C)[C@H](O)[C@@H]3/C=C/1C)C2(C)C`, the values for the inhibition in data set [1] and in data set [2] were 39.8% and 77.7%, respectively. For the same compound, the Activity entry with HEK293 is reported as “Non-Toxic”.
Regarding `CC(=O)O[C@]12C[C@@H](C)[C@H](O)[C@@H]1[C@H]1O[C@]1(C)[C@H](O)C[C@H]1[C@@H](/C=C(\C)C2=O)C1(C)C`, the values for the inhibition in data set [1] and in data set [2] were 39.2% and 75.1%, respectively. For the same compound, in the data set on HEK293, the Activity result is given as “Non-Toxic”.
As to `CC(=O)O[C@H]1[C@@H](C)/C=C/C(C)(C)C(=O)CC(=O)/C(C)=C/[C@H]2[C@@H](OC(=O)c3ccccc3)[C@H](C)C[C@@]21O`, the results for the inhibition in data set [1] and in data set [2] were 42.9% and 77.5%, respectively. For the same compound, the Activity entry with HEK293 is “Non-Toxic”.
Regarding `CC(=O)OCC1=C[C@@H]2C(=O)[C@]3(C=C(C)[C@H](O)[C@@]3(O)[C@@H]1O)[C@H](C)C[C@@H]1[C@H]2C1(C)C`, in data set [2], the inhibition is 12.5%. The same compound displayed an inhibition at 30 µM against hERG (KCNH2) [3] of 23.3%. The Activity result in the data set with HEK293 is “Non-Toxic”.
As for `CC(=O)O[C@]12C[C@@H](C)[C@H](OC(=O)c3ccccc3)[C@@H]1/C=C(\C)[C@H](O)C[C@H]1[C@@H](/C=C(\C)C2=O)C1(C)C`, the inhibition amounted to 55.6% in data set [1] and 81.2% in data set [2]. Also, at hERG (KCNH2) [3], the inhibition at 30 µM came out at 40.9%. In the data set with HEK293, the Activity entry is reported as “Non-Toxic”. For the same compound, the values for the IC50 in data set [5] and in data set [6] were greater than 30 µM and 4.3 µM, respectively. Also, the Ratio IC50 in the data set listed under Homo sapiens was greater than 7.
Consider `CC(=O)O[C@]12C[C@@H](C)[C@H](O)[C@@H]1/C=C(\C)[C@H](O)C[C@H]1[C@@H](/C=C(\C)C2=O)C1(C)C`, for which the inhibition in data set [1] came out at 21.7%; in data set [2], 67.5%. Moreover, the Activity result in the data set on HEK293 was “Non-Toxic”.
`CC1=C2C=C3CC[C@@H]4C(C)(C)[C@H](O)CC[C@@]4(C)[C@]3(O)C[C@H]2OC1=O`: the inhibition in data set [2] is 21.2%. For the same compound, in the data set with HEK293, the Activity result was “Non-Toxic”.
Turning to `CC(=O)O[C@@H]1[C@@H](C)/C=C/C(C)(C)C(=O)C[C@@H](O)/C(C)=C/[C@H]2[C@@H](OC(=O)c3ccccc3)[C@H](C)C[C@]12OC(C)=O`, the inhibition was found to be 59.8% in data set [1] and 84.2% in data set [2]. This compound showed an inhibition at 30 µM against hERG (KCNH2) [3] of 75.4%. Besides, the Activity entry in the data set with HEK293 is “Non-Toxic”. Also, the inhibition at 10 µM on hERG (KCNH2) [4] was 44.6%.
As to `Fc1ccc([C@@H]2CCNC[C@H]2COc2ccc3c(c2)OCO3)cc1` [PAROXETINE], the inhibition in data set [2] is 35.1%. The Activity entry with HEK293 is listed as “Non-Toxic”.
Consider `C/C1=C\[C@H]2[C@@H](OC(=O)c3ccccc3)[C@H](C)C[C@]2(O)[C@H](O)[C@@H](C)/C=C/C(C)(C)C(=O)C[C@H]1O`, for which the inhibition was 43.5% in data set [1] and 83.5% in data set [2]. Further, in the data set with HEK293, the Activity entry is reported as “Non-Toxic”.
`CC1=C2C=C3CC[C@@H]4C(C)(C)C(=O)[C@H](O)[C@@]4(C)[C@@H]3C[C@H]2OC1=O` showed an inhibition in data set [2] of 24.4%. The same compound gave an inhibition at 30 µM on hERG (KCNH2) [3] of 19.9%. Further, the Activity result with HEK293 is listed as “Non-Toxic”.
Turning to `CC(=O)O[C@]12C[C@@H](C)[C@H](O)[C@@H]1/C=C(\C)[C@H](O)C[C@@H]1[C@@H](/C=C(\C)C2=O)C1(C)C`, the inhibition in data set [1] worked out at 33.5%; in data set [2], 70.6%. In the data set with HEK293, the Activity entry was “Non-Toxic”.
In the case of `CC1(C)C(=O)CC[C@]2(C)[C@@H]1CC[C@@]13CC[C@@H](C[C@H]12)[C@](O)(CO)C3`, the inhibition in data set [2] is 7.1%. Further, in the data set with HEK293, the Activity result is given as “Non-Toxic”.
In the case of `CC(=O)O[C@@H]1[C@@H](C)/C=C/C(C)(C)C(=O)C[C@@H](O)/C(C)=C/[C@H]2[C@@H](OC(=O)c3ccccc3)[C@H](C)C[C@]12O`, the inhibition is 28.7% in data set [1] and 69.3% in data set [2]. Further, the Activity result with HEK293 is recorded as “Non-Toxic”.
On to `C=C1C[C@@]23CC[C@@H]4C(C)(C)C(=O)CC[C@@]4(C)[C@@H]2C[C@@H]1[C@@H](O)C3=O`, for which the inhibition in data set [2] worked out at 32.3%. The same compound had an inhibition at 30 µM on hERG (KCNH2) [3] of 24.5%. Besides, the Activity result in the data set on HEK293 is given as “Non-Toxic”.
